In patent US20150175599A1, “FAAH Inhibitors” (Ironwood Pharmaceuticals, Inc., priority 2010, published 2015):

How the values were obtained:
FAAH = molecular target: T1, FAAH (Homo sapiens, UniProt O00519); test: FAAH inhibition, human brain membrane homogenate assay; assay type: biochemical; settings: human brain homogenate; average activity; read-out: Human brain Extract FAAH IC50
T1 construct: Reactions were initiated by adding 12.5 μg of brain microsome; tissue ABS, Inc; host or cells: human brain cerebral cortex, membrane/microsome fraction pooled from 3 donors
T1 sequence (O00519 1-579): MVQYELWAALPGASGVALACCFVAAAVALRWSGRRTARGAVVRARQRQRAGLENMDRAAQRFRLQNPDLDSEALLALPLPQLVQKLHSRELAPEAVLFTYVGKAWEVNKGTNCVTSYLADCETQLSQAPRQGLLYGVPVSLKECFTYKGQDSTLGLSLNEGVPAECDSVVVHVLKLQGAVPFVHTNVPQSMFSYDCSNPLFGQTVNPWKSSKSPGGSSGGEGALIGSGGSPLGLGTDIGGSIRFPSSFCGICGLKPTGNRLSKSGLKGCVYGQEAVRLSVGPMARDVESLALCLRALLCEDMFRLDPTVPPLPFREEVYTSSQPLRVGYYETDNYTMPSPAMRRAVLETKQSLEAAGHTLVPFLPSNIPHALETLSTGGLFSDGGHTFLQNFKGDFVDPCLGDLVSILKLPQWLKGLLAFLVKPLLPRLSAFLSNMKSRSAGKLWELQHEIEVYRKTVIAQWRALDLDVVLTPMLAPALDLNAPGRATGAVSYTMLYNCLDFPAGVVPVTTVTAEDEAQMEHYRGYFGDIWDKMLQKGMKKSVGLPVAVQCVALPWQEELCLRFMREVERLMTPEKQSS

human FAAH-1 = molecular target: T2, human FAAH-1 (Homo sapiens, UniProt O00519); test: Whole cell anandamide hydrolysis assay (HeLa clone 5c5 transfected with human FAAH-1); assay type: cell-based; settings: HeLa clone 5c5 expressing human FAAH-1; read-out: human FAAH whole cell IC50
T2 sequence (O00519 1-579): T1 sequence (O00519 1-579)
In short: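 Stable HeLa clone 5c5 expressing human FAAH-1, pre-incubated with compound 10 min at 37° C in DMEM/F12 with 15 mM HEPES pH 7.4 and 0.1% fatty-acid-free BSA. [3H]-anandamide (5 μM stock) added for 15 min; [3H]-ethanolamine separated on charcoal and counted. IC50 from curves constrained to 100% and 0%.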

COc1cc(NC(=O)C(=O)c2c(C)n(Cc3ccc(F)cn3)c3ccc(C)cc23)ccn1 [Compound 85, 2-(1-((5-fluoropyridin-2-yl)methyl)-2,5-dimethyl-1H-indol-3-yl)-N-(2-methoxypyridin-4-yl)-2-oxoacetamide]
IC50 (FAAH): < 100 nM
IC50 (human FAAH-1): < 100 nM

COc1cc(NC(=O)C(=O)c2c(C)n(Cc3ccc(Cl)cc3)c3cc(OC)c(Cl)cc23)ccn1 [Compound 80, 2-(5-chloro-1-(4-chlorobenzyl)-6-methoxy-2-methyl-1H-indol-3-yl)-N-(2-methoxypyridin-4-yl)-2-oxoacetamide]
IC50 (FAAH): < 100 nM
IC50 (human FAAH-1): < 100 nM

COc1cc(NC(=O)C(=O)c2c(C)n(Cc3ccc(Cl)cc3)c3ccc(C(=O)O)cc23)ccn1 [Compound 4, 1-(4-chlorobenzyl)-3-(2-(2-methoxypyridin-4-ylamino)-2-oxoacetyl)-2-methyl-1H-indole-5-carboxylic acid]
IC50 (FAAH): 1000 to 10000 nM
IC50 (human FAAH-1): 1000 to 10000 nM

COc1cc(NC(=O)C(=O)c2c(C)n(Cc3ccc(Cl)cc3)c3cccnc23)ccn1 [Compound 3, 2-(1-(4-chlorobenzyl)-2-methyl-1H-pyrrolo[3,2-b]pyridin-3-yl)-N-(2-methoxypyridin-4-yl)-2-oxoacetamide]
IC50 (FAAH): < 100 nM
IC50 (human FAAH-1): < 100 nM

COc1ccc2c(c1)c(C(=O)C(=O)Nc1ccnc(OC)c1)c(C)n2Cc1ncc(Cl)cc1F [Compound 87, 2-(1-((5-chloro-3-fluoropyridin-2-yl)methyl)-5-methoxy-2-methyl-1H-indol-3-yl)-N-(2-methoxypyridin-4-yl)-2-oxoacetamide]
IC50 (FAAH): < 100 nM
IC50 (human FAAH-1): < 100 nM

COc1cc(NC(=O)C(=O)c2c(C)n(Cc3ccc(Cl)cn3)c3cc(Cl)c(C)cc23)ccn1 [Compound 94, 2-(6-chloro-1-((5-chloropyridin-2-yl)methyl)-2,5-dimethyl-1H-indol-3-yl)-N-(2-methoxypyridin-4-yl)-2-oxoacetamide]
IC50 (FAAH): < 100 nM
IC50 (human FAAH-1): < 100 nM

COc1cc(NC(=O)C(=O)c2c(C)n(Cc3ccc(Cl)cc3Cl)c3cc(F)c(OC)cc23)ccn1 [Compound 92, 2-(1-(2,4-dichlorobenzyl)-6-fluoro-5-methoxy-2-methyl-1H-indol-3-yl)-N-(2-methoxypyridin-4-yl)-2-oxoacetamide]
IC50 (FAAH): < 100 nM
IC50 (human FAAH-1): < 100 nM

COc1ccc2c(c1)c(C(=O)C(=O)Nc1ccnc(OC)c1)c(C)n2Cc1ncccn1 [Compound 83, 2-(5-methoxy-2-methyl-1-(pyrimidin-2-ylmethyl)-1H-indol-3-yl)-N-(2-methoxypyridin-4-yl)-2-oxoacetamide]
IC50 (FAAH): 1000 to 10000 nM
IC50 (human FAAH-1): 100 to 1000 nM

COc1ccc2c(c1)c(C(=O)C(=O)Nc1ccnc(OC)c1)c(C)n2Cc1ccc(Cl)nn1 [Compound 86, 2-(1-((6-chloropyridazin-3-yl)methyl)-5-methoxy-2-methyl-1H-indol-3-yl)-N-(2-methoxypyridin-4-yl)-2-oxoacetamide]
IC50 (FAAH): < 100 nM
IC50 (human FAAH-1): < 100 nM

COc1ccc2c(c1)c(C(=O)C(=O)Nc1ccnc(OC)c1)c(C)n2Cc1ccc(C)cn1 [Compound 84, 2-(5-methoxy-2-methyl-1-((5-methylpyridin-2-yl)methyl)-1H-indol-3-yl)-N-(2-methoxypyridin-4-yl)-2-oxoacetamide]
IC50 (FAAH): < 100 nM
IC50 (human FAAH-1): < 100 nM

COc1ccc2c(c1)c(C(=O)C(=O)Nc1ccnc(OC)c1)c(C)n2Cc1ccc(Cl)cn1 [Compound 79, 2-(1-((5-chloropyridin-2-yl)methyl)-5-methoxy-2-methyl-1H-indol-3-yl)-N-(2-methoxypyridin-4-yl)-2-oxoacetamide]
IC50 (FAAH): < 100 nM
IC50 (human FAAH-1): < 100 nM

COc1cc(NC(=O)C(=O)c2c(C)n(Cc3ccc(Cl)cc3)c3cc(Cl)c(C)cc23)ccn1 [Compound 93, 2-(6-chloro-1-(4-chlorobenzyl)-2,5-dimethyl-1H-indol-3-yl)-N-(2-methoxypyridin-4-yl)-2-oxoacetamide]
IC50 (FAAH): < 100 nM
IC50 (human FAAH-1): < 100 nM

COc1ccc2c(c1)c(C(=O)C(=O)Nc1ccnc(OC)c1)c(C)n2Cc1ncc(Cl)cc1Cl [Compound 82, 2-(1-((3,5-dichloropyridin-2-yl)methyl)-5-methoxy-2-methyl-1H-indol-3-yl)-N-(2-methoxypyridin-4-yl)-2-oxoacetamide]
IC50 (FAAH): < 100 nM
IC50 (human FAAH-1): < 100 nM

COc1cc(NC(=O)C(=O)c2c(C)n(Cc3ccc(Cl)cc3)c3cc(F)c(C)cc23)ccn1 [Compound 89, 2-(1-(4-chlorobenzyl)-6-fluoro-2,5-dimethyl-1H-indol-3-yl)-N-(2-methoxypyridin-4-yl)-2-oxoacetamide]
IC50 (FAAH): < 100 nM
IC50 (human FAAH-1): < 100 nM

COc1cc(NC(=O)C(=O)c2c(C)n(Cc3ccc(Cl)cn3)c3cc(F)c(C)cc23)ccn1 [Compound 90, 2-(1-((5-chloropyridin-2-yl)methyl)-6-fluoro-2,5-dimethyl-1H-indol-3-yl)-N-(2-methoxypyridin-4-yl)-2-oxoacetamide]
IC50 (FAAH): < 100 nM
IC50 (human FAAH-1): < 100 nM

COc1ccc2c(c1)c(C(=O)C(=O)Nc1ccnc(OC)c1)c(C)n2Cc1ncc(F)cc1F [Compound 81, 2-(1-((3,5-difluoropyridin-2-yl)methyl)-5-methoxy-2-methyl-1H-indol-3-yl)-N-(2-methoxypyridin-4-yl)-2-oxoacetamide]
IC50 (FAAH): < 100 nM
IC50 (human FAAH-1): < 100 nM

COc1cc(NC(=O)C(=O)c2c(C)n(Cc3ccc(Cl)cc3F)c3cc(F)c(OC)cc23)ccn1 [Compound 91, 2-(1-(4-chloro-2-fluorobenzyl)-6-fluoro-5-methoxy-2-methyl-1H-indol-3-yl)-N-(2-methoxypyridin-4-yl)-2-oxoacetamide]
IC50 (FAAH): < 100 nM
IC50 (human FAAH-1): < 100 nM

COc1ccc2c(c1)c(C(=O)C(=O)Nc1ccnc(OC)c1)c(C)n2Cc1cccnc1 [Compound 78, 2-(5-methoxy-2-methyl-1-(pyridin-3-ylmethyl)-1H-indol-3-yl)-N-(2-methoxypyridin-4-yl)-2-oxoacetamide]
IC50 (FAAH): 100 to 1000 nM
IC50 (human FAAH-1): < 100 nM
